Test results published in patent US7723068B2, “Gene cluster involved in safracin biosynthesis and its uses for genetic engineering” (PharmaMar, S.A., priority 2002, dated 2010).

Key:
[1] = test system: IGROV; conditions: Ovary
[2] = test system: K-562; conditions: Leukemia
[3] = test system: Bacillus subtilis; test: Antimicrobial activity on solid medium, disk; format: cell-based; conditions: 10 μg/disk (6 mm diameter)
Protocol: Antimicrobial activity: On solid medium Bacillus subtilis. 10 μg/disk (6 mm diameter): 10 mm inhibition zone Spectroscopic Data: […]

[4] = test system: PANC1; conditions: Pancreas
[5] = test system: A549; conditions: NSCL
[6] = test system: IGROV-ET; conditions: Ovary
[7] = test system: LN-caP; conditions: Prostate
[8] = test system: SK-BR3; test: cells; conditions: Homo sapiens; for GI50: SK-BR-3, read-out: GI50 SK-BR3; for CC50: SK-BR-3, read-out: LC50 SK-BR3
[9] = test system: HELA-APL; test: cells; conditions: for GI50: read-out: GI50 HELA-APL; for CC50: read-out: LC50 HELA-APL
[10] = test system: PANC1; test: cells; conditions: Homo sapiens; for GI50: PANC-1, read-out: GI50 PANC1; for CC50: PANC-1, read-out: LC50 PANC1
[11] = test system: SK-MEL-28; conditions: Melanoma
[12] = test system: LOVO-DOX; conditions: Colon
[13] = test system: HELA-APL; conditions: Cervix
[14] = test system: HELA; test: cells; conditions: Homo sapiens; for GI50: read-out: GI50 HELA; for CC50: read-out: LC50 HELA
[15] = test system: K-562; test: cells; conditions: Homo sapiens; for GI50: K562, read-out: GI50 K-562; for CC50: K562, read-out: LC50 K-562
[16] = test system: LN-caP; test: cells; conditions: Homo sapiens, LNCaP; for GI50: read-out: GI50 LN-caP; for CC50: read-out: LC50 LN-caP
[17] = test system: LOVO; conditions: Colon
[18] = test system: HT29; conditions: Colon
[19] = test system: LOVO-DOX; test: cells; conditions: for GI50: read-out: GI50 LOVO-DOX; for CC50: read-out: LC50 LOVO-DOX
[20] = test system: DU-145; test: cells; conditions: Homo sapiens; for GI50: DU-145, read-out: GI50 DU-145; for CC50: DU-145, read-out: LC50 DU-145
[21] = test system: DU-145; conditions: Prostate
[22] = test system: SK-MEL-28; test: cells; conditions: Homo sapiens; for GI50: SK-MEL-28, read-out: GI50 SK-MEL-28; for CC50: SK-MEL-28, read-out: LC50 SK-MEL-28
[23] = Antibacterial and antitumoral activities, general statements; conditions: compared with safracin A / safracin B
[24] = test system: IGROV-ET; test: cells; conditions: for GI50: read-out: GI50 IGROV-ET; for CC50: read-out: LC50 IGROV-ET
[25] = test system: LOVO; test: cells; conditions: Homo sapiens; for GI50: read-out: GI50 LOVO; for CC50: read-out: LC50 LOVO
[26] = test system: SK-BR3; conditions: Breast
[27] = test system: HELA; conditions: Cervix
[28] = test system: A549; test: cells; conditions: Homo sapiens; for GI50: A549, read-out: GI50 A549; for CC50: A549, read-out: LC50 A549
[29] = test system: HT29; test: cells; conditions: Homo sapiens; for GI50: HT-29, read-out: GI50 HT29; for CC50: HT-29, read-out: LC50 HT29
[30] = test system: IGROV; test: cells; conditions: for GI50: read-out: GI50 IGROV; for CC50: read-out: LC50 IGROV

With `COc1c(C)cc2c(c1O)C1NC(C2)C(O)N2C(CNC(=O)C(C)N)c3c(cc(C)c(OC)c3O)CC12` (stereo not drawn) [Safracin P-19B] the “TGI IGROV” value [1] was 14.8 µM, the “TGI K-562” value [2] was 5.77 µM and the “Antimicrobial activity: inhibition zone” value [3] was “NO ACTIVE”. The “TGI PANC1” value [4] was greater than 19.5 µM, the “TGI A549” value [5] was greater than 19.5 µM and the “TGI IGROV-ET” value [6] was greater than 19.5 µM. For the same compound, the “TGI LN-caP” value [7] was 8.06 µM, the GI50 [8] was 7.08 µM and the CC50 [8] was greater than 19.5 µM. It also gave a GI50 [9] of 4.8 µM, a CC50 [9] of 19.5 µM and a GI50 [10] of 18.1 µM. For the same compound, the CC50 [10] was greater than 19.5 µM, the “TGI SK-MEL-28” value [11] was greater than 19.5 µM and the “TGI LOVO-DOX” value [12] was greater than 19.5 µM. For the same compound, the “TGI HELA-APL” value [13] was 10 µM, the GI50 [14] was 6.73 µM and the CC50 [14] was greater than 19.5 µM. The GI50 [15] was 2.38 µM, the CC50 [15] was 14 µM and the GI50 [16] was 3.9 µM. The CC50 [16] was 16.7 µM, the “TGI LOVO” value [17] was greater than 19.5 µM and the “TGI HT29” value [18] was greater than 19.5 µM. For the same compound, the GI50 [19] was 14.4 µM, the CC50 [19] was greater than 19.5 µM and the GI50 [20] was 17 µM. The CC50 [20] was greater than 19.5 µM, the “TGI DU-145” value [21] was greater than 19.5 µM and the GI50 [22] was 7.9 µM. The CC50 [22] was greater than 19.5 µM, the “antibacterial and antitumoral activities (in words)” value [23] was “appear to loose their activity” and the GI50 [24] was 8.74 µM. The CC50 [24] was greater than 19.5 µM, the GI50 [25] was greater than 19.5 µM and the CC50 [25] was greater than 19.5 µM. For the same compound, the “TGI SK-BR3” value [26] was 19.2 µM, the “TGI HELA” value [27] was 16.1 µM and the GI50 [28] was greater than 19.5 µM. The CC50 [28] was greater than 19.5 µM, the GI50 [29] was 15.5 µM and the CC50 [29] was greater than 19.5 µM. It also gave a GI50 [30] of 5.42 µM and a CC50 [30] greater than 19.5 µM.

In the case of `COc1c(C)cc2c(c1O)C1C3Cc4cc(C)c(OC)c(O)c4C(CNC(=O)C(C)N)N3CC(C2)N1C` (stereo not drawn) [Safracin P-22A], the “TGI IGROV” value [1] is reported as 19.6 µM, the “TGI K-562” value [2] is reported as 7.93 µM and the “Antimicrobial activity: inhibition zone” value [3] is reported as “NO ACTIVE”. For the same compound, the “TGI PANC1” value [4] was greater than 19.6 µM, the “TGI A549” value [5] was greater than 19.6 µM and the “TGI IGROV-ET” value [6] was greater than 19.6 µM. The “TGI LN-caP” value [7] was 9.26 µM, the GI50 [8] was 12.7 µM and the CC50 [8] was greater than 19.6 µM. The GI50 [9] was 7.66 µM, the CC50 [9] was greater than 19.6 µM and the GI50 [10] was greater than 19.6 µM. The CC50 [10] was greater than 19.6 µM, the “TGI SK-MEL-28” value [11] was 13.3 µM and the “TGI LOVO-DOX” value [12] was greater than 19.6 µM. The “TGI HELA-APL” value [13] was 19.6 µM, the GI50 [14] was 8.75 µM and the CC50 [14] was greater than 19.6 µM. The GI50 [15] was 3.15 µM, the CC50 [15] was 19.6 µM and the GI50 [16] was 4.19 µM. For the same compound, the CC50 [16] was greater than 19.6 µM, the “TGI LOVO” value [17] was greater than 19.6 µM and the “TGI HT29” value [18] was greater than 19.6 µM. The GI50 [19] was greater than 19.6 µM, the CC50 [19] was greater than 19.6 µM and the GI50 [20] was greater than 19.6 µM. The CC50 [20] was greater than 19.6 µM, the “TGI DU-145” value [21] was greater than 19.6 µM and the GI50 [22] was 5.93 µM. For the same compound, the CC50 [22] was greater than 19.6 µM, the “antibacterial and antitumoral activities (in words)” value [23] was “appear to loose their activity” and the GI50 [24] was 13 µM. It also gave a CC50 [24] greater than 19.6 µM, a GI50 [25] greater than 19.6 µM and a CC50 [25] greater than 19.6 µM. The “TGI SK-BR3” value [26] was greater than 19.6 µM, the “TGI HELA” value [27] was greater than 19.6 µM and the GI50 [28] was greater than 19.6 µM. The CC50 [28] was greater than 19.6 µM, the GI50 [29] was 12.6 µM and the CC50 [29] was greater than 19.6 µM. It also gave a GI50 [30] of 7.74 µM and a CC50 [30] greater than 19.6 µM.

With `COc1c(C)cc2c(c1O)C1C3Cc4cc(C)c(OC)c(O)c4C(CNC(=O)C(C)N)N3C(O)C(C2)N1C` (stereo not drawn) [Safracin P-22B] the “TGI IGROV” value [1] was 2.3 µM, the “TGI K-562” value [2] was 0.467 µM and the zone of inhibition at 10 µg/disc ([3]; Bacillus subtilis) was 10 mm. The “TGI PANC1” value [4] was 11.7 µM, the “TGI A549” value [5] was 8.83 µM and the “TGI IGROV-ET” value [6] was 7.04 µM. For the same compound, the “TGI LN-caP” value [7] was 0.608 µM, the GI50 [8] was 0.824 µM and the CC50 [8] was 8.85 µM. For the same compound, the GI50 [9] was 0.465 µM, the CC50 [9] was 1.86 µM and the GI50 [10] was 4.77 µM. For the same compound, the CC50 [10] was greater than 19 µM, the “TGI SK-MEL-28” value [11] was 0.999 µM and the “TGI LOVO-DOX” value [12] was 19 µM. For the same compound, the “TGI HELA-APL” value [13] was 0.932 µM, the GI50 [14] was 0.761 µM and the CC50 [14] was 7.42 µM. It also gave a GI50 [15] of 0.113 µM, a CC50 [15] of 1.84 µM and a GI50 [16] of 0.308 µM. For the same compound, the CC50 [16] was 1.2 µM, the “TGI LOVO” value [17] was 6.84 µM and the “TGI HT29” value [18] was 2.75 µM. It also gave a GI50 [19] of 6.95 µM, a CC50 [19] greater than 19 µM and a GI50 [20] of 4.58 µM. The CC50 [20] was 16.2 µM, the “TGI DU-145” value [21] was 8.62 µM and the GI50 [22] was 0.52 µM. The CC50 [22] was 2.01 µM, the “antibacterial and antitumoral activities (in words)” value [23] was “appear to loose their activity” and the GI50 [24] was 3.02 µM. It also gave a CC50 [24] of 16.5 µM, a GI50 [25] of 2.54 µM and a CC50 [25] of 18.4 µM. For the same compound, the “TGI SK-BR3” value [26] was 2.28 µM, the “TGI HELA” value [27] was 1.83 µM and the GI50 [28] was 4.71 µM. For the same compound, the CC50 [28] was 16.6 µM, the GI50 [29] was 1.01 µM and the CC50 [29] was 18.6 µM. It also gave a GI50 [30] of 0.849 µM and a CC50 [30] of 12.1 µM.
